US9067938B2, “Pyrazolopyridinone derivatives as LPA receptor antagonists” (Merck Patent GmbH, priority 2010, dated 2015)

Biological target: LPA2 receptor (Homo sapiens, UniProt Q9HBW0)
Assay: LPA2R-calciumflux assay
Assay type: cell-based
Details: U2OS cells recombinant expressing LPA2R; LPA-induced intracellular calcium signal (FLIPR Tetra); 10 concentrations from 30 uM to 1 nM, 1% DMSO
Text: Description of the LPA2R Assay
Cell Cultivation/Propagation
LPA2R-calciumflux Assay Protocol
The assay detects intra cellular calcium which is generated by cells upon activation of the LPA2 receptor by its ligand LPA. This transient calcium mobilisation can be monitored using a commercial calcium detection kit (e.g. from Molecular Devices). The main component of such a kit is a dye, which becomes fluorescent when calcium is present—a transient fluorescence signal after laddition of a ligand to a test well are the result. Readers like the FLIPR (from Molecular Devices) can be used to monitor such transient “Ca-flux” signals.
The signals are calculated according to peak maximum minus base line. Compounds which are antogonists of LPA lead to a decreased mobilisation of intracellular calcium and thus to a lower signal. The assay is performed in microplates (384 wells per plate).
The assay itself is run according to the following procedure: • 50 uL seed cells (10000 cells/well in DMEM buffer) • Incubate 24 h at 37° C., 10% CO2 • aspirate medium • 50 uL add calcium dye 1×HBSS/HEPES buffer • incubate 1 h at 37° C. (“loading”) • equilibrate 10 min at RT • 5 uL add compounds in HEPES buffer • shake 10 sec. @ 1000 rpm • incubate 15 min at RT • 20 uL add LPA (in the FLIPR Tetra) in KREBS-Puffer/BSA & measurement
The cells are seeded in DMEM buffer (DMEM, 10% FCS, 10 mM HEPES, 1% Pen/Strep).
Dye loading is done in HBSS/HEPES buffer (100 mL 10×HBSS+20 mL 1M HEPES+880 mL water, pH 7.4)
The LPA is added in Krebs/BSA buffer (120 mM NaCl, 5 mM KCl, 0.62 mM MgSO4, 1.8 mM CaCl2, 10 mM HEPES, 6 mM D(+)-Glucose, 0.2% BSA, pH 7.4).
The compounds are pre-diluted in HEPES buffer (20 mM, pH 7.4), whereby the final DMSO content in the assay is kept at 1%. The compounds are pre-diluted in order to generate dose response series on the microplates. The dose response series consist of 10 concentrations for each compound from 30 uM final to 1 nM final. From all compound wells the resulting signals are referred to control wells (located on each plate besides the compound wells) in terms of % activity.
[formula] From these % activity values—along with the corresponding compound concentrations—IC50 values are fitted for each compound using standard fitting programs such as Graphpad Prism. Here the method “log(inhibitor) vs. response—Variable slope” is used. Reader Settings (FLIPR Tetra) • ExcWLength:470—495 • Em.Wlength: 515—575 • Gain: 50 • Exp. Time: 0,4 • Exc.Intensity: 80 • READ with TF • First read interval: 1,00 s • Number of first reads: 240 • Reads before dispense: 10 • Second read interval: 1,00 s • Number of second reads: 0 • Save Images No

Sequence of LPA2 receptor (Q9HBW0 whole entry): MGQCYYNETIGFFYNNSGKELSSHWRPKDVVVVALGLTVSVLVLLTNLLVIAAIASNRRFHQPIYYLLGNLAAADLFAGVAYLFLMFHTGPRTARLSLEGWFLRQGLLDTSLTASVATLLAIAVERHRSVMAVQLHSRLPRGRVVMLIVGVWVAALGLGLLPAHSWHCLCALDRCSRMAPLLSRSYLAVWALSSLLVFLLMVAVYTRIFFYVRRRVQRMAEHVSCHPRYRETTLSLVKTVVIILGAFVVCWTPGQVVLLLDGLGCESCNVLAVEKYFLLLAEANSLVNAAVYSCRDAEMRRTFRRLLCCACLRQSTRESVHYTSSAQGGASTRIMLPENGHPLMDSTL

`O=C1CC(O)(C(F)(F)F)c2c(-c3ccccc3)n[nH]c2N1` (stereo not shown) [Compound 2, 4-Hydroxy-3-phenyl-4-trifluoromethyl-1,4,5,7-tetrahydro-pyrazolo[3,4-b]pyridin-6-one] and `O=C1CC(O)(C(F)(F)F)c2c(-c3cccc(Cl)c3)n[nH]c2N1` (stereo not shown) [Compound 14, 3-(3-Chloro-phenyl)-4-hydroxy-4-trifluoromethyl-1,4,5,7-tetrahydro-pyrazolo[3,4-b]pyridin-6-one] cannot be ordered by IC50: < 1000 nM for the first, < 1000 nM for the second.

`COc1ccc(-c2n[nH]c3c2C(O)(C(F)(F)F)CC(=O)N3)cc1OC` (stereo not shown) [Compound 31, 3-(3,4-Dimethoxy-phenyl)-4-hydroxy-4-trifluoromethyl-1,4,5,7-tetrahydro-pyrazolo[3,4-b]pyridin-6-one] and `COc1cc(OC)cc(-c2n[nH]c3c2C(O)(C(F)(F)F)CC(=O)N3)c1` (stereo not shown) [Compound 9, 3-(3,5-Dimethoxy-phenyl)-4-hydroxy-4-trifluoromethyl-1,4,5,7-tetrahydro-pyrazolo[3,4-b]pyridin-6-one] cannot be ordered by IC50: < 1000 nM for the first, < 1000 nM for the second.

`Cn1nc(-c2ccccc2)c2c1NC(=O)CC2(O)C(F)(F)F` (stereo not shown) [Compound 4, 4-Hydroxy-1-methyl-3-phenyl-4-trifluoromethyl-1,4,5,7-tetrahydro-pyrazolo[3,4-b]pyridin-6-one] and `Cn1nc(-c2cccs2)c2c1NC(=O)CC2(O)C(F)(F)F` (stereo not shown) [Compound 7, 4-Hydroxy-1-methyl-3-thiophen-2-yl-4-trifluoromethyl-1,4,5,7-tetrahydro-pyrazolo[3,4-b]pyridin-6-one] cannot be ordered by IC50: > 10000 nM for the first, > 10000 nM for the second.

First: O=C1CC(O)(C(F)(F)F)c2c(-c3ccc(Cl)cc3)n[nH]c2N1 (stereo not shown) [Compound 5, 3-(4-Chloro-phenyl)-4-hydroxy-4-trifluoromethyl-1,4,5,7-tetrahydro-pyrazolo[3,4-b]pyridin-6-one]
Second: O=C1CC(O)(C(F)(F)F)c2c(-c3ccc(Br)cc3)n[nH]c2N1 (stereo not shown) [Compound 12, 3-(4-Bromo-phenyl)-4-hydroxy-4-trifluoromethyl-1,4,5,7-tetrahydro-pyrazolo[3,4-b]pyridin-6-one]
The IC50 of the first is lower: 1000 to 10000 nM for the first, > 10000 nM for the second. The first is the more potent here.

Going from `COC1C(=O)Nc2[nH]nc(-c3ccccc3)c2C1(O)C(F)(F)F` (stereo not shown) [Compound 27, 4-Hydroxy-5-methoxy-3-phenyl-4-trifluoromethyl-1,4,5,7-tetrahydro-pyrazolo[3,4-b]pyridin-6-one] to `COc1ccc(-c2n[nH]c3c2C(O)(C(F)(F)F)CC(=O)N3)cc1` (stereo not shown) [Compound 3, 4-Hydroxy-3-(4-methoxy-phenyl)-4-trifluoromethyl-1,4,5,7-tetrahydro-pyrazolo[3,4-b]pyridin-6-one], the IC50 falls from > 10000 nM to < 1000 nM. The second is the more potent here.

Compared with `O=C1CC(O)(C(F)(F)F)c2c(-c3c[nH]c4ccccc34)n[nH]c2N1` (stereo not shown) [Compound 29, 4-Hydroxy-3-(1H-indol-3-yl)-4-trifluoromethyl-1,4,5,7-tetrahydro-pyrazolo[3,4-b]pyridin-6-one], `O=C1CC(O)(C(F)(F)F)c2c(-c3ccc(F)cc3)n[nH]c2N1` (stereo not shown) [Compound 17, 3-(4-Fluoro-phenyl)-4-hydroxy-4-trifluoromethyl-1,4,5,7-tetrahydro-pyrazolo[3,4-b]pyridin-6-one] is lower in IC50: > 10000 nM for the first, < 1000 nM for the second. The second is the more potent here.

`Cc1ccc(-c2n[nH]c3c2C(O)(C(F)(F)F)CC(=O)N3)cc1` (stereo not shown) [Compound 6, 4-Hydroxy-3-p-tolyl-4-trifluoromethyl-1,4,5,7-tetrahydro-pyrazolo[3,4-b]pyridin-6-one] and `O=C1CC(O)(C(F)(F)F)c2c(-c3cccc(Br)c3)n[nH]c2N1` (stereo not shown) [Compound 13, 3-(3-Bromo-phenyl)-4-hydroxy-4-trifluoromethyl-1,4,5,7-tetrahydro-pyrazolo[3,4-b]pyridin-6-one] cannot be ordered by IC50: < 1000 nM for the first, < 1000 nM for the second.

Compared with `O=C1CC(O)(C(F)(F)F)c2c(-c3cccc(F)c3)n[nH]c2N1` (stereo not shown) [Compound 1, 3-(3-Fluoro-phenyl)-4-hydroxy-4-trifluoromethyl-1,4,5,7-tetrahydro-pyrazolo[3,4-b]pyridin-6-one], `O=C1C[C@](O)(C(F)(F)F)c2c(-c3cccc(F)c3)n[nH]c2N1` [Compound 21, (+)-3-(3-Fluoro-phenyl)-4-hydroxy-4-trifluoromethyl-1,4,5,7-tetrahydro-pyrazolo[3,4-b]pyridin-6-one] is higher in IC50: < 1000 nM for the first, > 10000 nM for the second. The first is the more potent here.
